The record followed here is patent US20230000863A1, “COMPOSITION CONTAINING AROMATIC HETEROCYCLIC COMPOUND IN AMORPHOUS FORM, AND PREPARATION METHOD THEREFOR AND USE THEREOF” (SHENZHEN CHIPSCREEN BIOSCIENCES CO., LTD., priority 2019, published 2023).

Holding throughout (format): in vivo
Data set [1] in a line: Pharmacokinetic test of compositions containing the compound of Formula (1) in rats. As to conditions: rat, po, fasted, gavage, 20 mg/kg of compound of Formula (1), LC-MS/MS. How it is done:
Twenty-four healthy rats were selected and randomly divided into 4 groups, 6 rats per group, which were respectively compound of Formula (1), Example 3, Example 4 and Example 7. During the experiment, the rats were fasted overnight before administration, and blood was collected from the orbit before administration, and the plasma was separated, which was taken as the blood concentration sample at 0 h. The gavage solutions were prepared by dispersion with purified water, the concentration of the gavage solutions was 2 mg/ml, and each rat was administered with the compound of Formula (1) at a dose of 20 mg/kg, respectively. After administration, blood samples were collected at 15 min, 0.5 h, 1 h, 2 h, 4 h, 6 h, and 8 h, and each sample was collected about 0.5 ml, anticoagulated with heparin sodium, placed on ice after collection, and centrifuged within 1 hour to separate plasma, which was stored at −80° C. for later test. The drug concentration in plasma was measured by LC-MS/MS.

Data set [2] in a line: Pharmacokinetic test of pharmaceutical preparations in rats. As to conditions: both sexes, rat, po, fasted, gavage, 20 mg/kg of compound of Formula (1), LC-MS/MS. The text has this: Thirty healthy rats were selected and randomly divided into 5 groups, 6 rats (3 females, 3 males) per group, which were respectively the groups of the compound of Formula (1), the capsules of Formulation Example 1, the granules of Formulation Example 4, the tablets of Formulation Example 7, and the soft capsules of Formulation Example 10. During the experiment, the rats were fasted overnight before administration, and blood was collected from the orbit before administration, and the plasma was separated, which was taken as the blood concentration sample at 0 h. The gavage solutions were prepared by dispersing with purified water, the concentration of the gavage solutions was 2 mg/ml, and each rat was administered with the compound of Formula (1) at a dose of 20 mg/kg respectively. After administration, blood samples were collected at 15 min, 0.5 h, 1 h, 2 h, 4 h, 6 h, and 8 h, and each sample was collected about 0.5 ml, anticoagulated with heparin sodium, placed on ice after collection, and centrifuged within 1 hour to separate plasma, which was stored at −80° C. for later test. The drug concentration in plasma was measured by LC-MS/MS.

Data set [3] is described as follows: Pharmacokinetic test of pharmaceutical preparations in beagle dogs. As to conditions: po, fasted, gavage, 100 mg of compound of Formula (1) per dog, LC-MS/MS. As for the experimental part: Nine healthy beagle dogs were selected, which were divided into the group of the compound of Formula (1), capsules of Formulation Example 1, and capsules of Formulation Example 11. During the experiment, the beagle dogs were fasted overnight before administration, and venous blood was collected before administration, and plasma was separated as the blood drug concentration sample at […]. Each beagle dog was administrated by gavage at a dose of 100 mg of the compound of Formula (1), respectively. After administration, blood samples were collected at 15 min, 0.5 h, 1 h, 2 h, 4 h, 8 h, and 24 h respectively. Each sample was collected about 0.5 ml, anticoagulated with heparin sodium, placed on ice after collection, and centrifuged within 1 hour to separate plasma, the drug concentration in plasma was measured by LC-MS/MS.

The structures appear in SMILES notation.

For `C=CC(=O)N(C)c1cc(Nc2ncc(Cl)c(NCCCNC(=O)c3ccc(C#N)cc3)n2)ccc1F` [Compound of Formula (1)], the exposure AUC(0-t) (in general, the area under the concentration-time curve up to a stated or last time point) came out at 235 ng·h/mL in data set [1] (plasma 0-8 h), 235 ng·h/mL in data set [2] (plasma 0-8 h) and 30 ng·h/mL in data set [3] (plasma 0-24 h). Moreover, the Cmax (as a rule, the highest concentration seen after dosing) in data set [1] (plasma) is 243 ng/mL; in data set [2] (plasma), 243 ng/mL; in data set [3] (plasma), 22 ng/mL. Also, the half-life (usually the time needed for the level to fall by half in the phase considered) in data set [3] (plasma) is 24 min.
